Data published in ChEMBL document CHEMBL4406923, “New Potent DOT1L Inhibitors for in Vivo Evaluation in Mouse” (ACS Med Chem Lett, 2019).
Active and inactive are the calls of the source. No cut-off for these calls is given here.

Biological target: T1, Histone-lysine N-methyltransferase EHMT2 (Homo sapiens) (UniProt Q96KQ7)
T1 sequence (whole entry): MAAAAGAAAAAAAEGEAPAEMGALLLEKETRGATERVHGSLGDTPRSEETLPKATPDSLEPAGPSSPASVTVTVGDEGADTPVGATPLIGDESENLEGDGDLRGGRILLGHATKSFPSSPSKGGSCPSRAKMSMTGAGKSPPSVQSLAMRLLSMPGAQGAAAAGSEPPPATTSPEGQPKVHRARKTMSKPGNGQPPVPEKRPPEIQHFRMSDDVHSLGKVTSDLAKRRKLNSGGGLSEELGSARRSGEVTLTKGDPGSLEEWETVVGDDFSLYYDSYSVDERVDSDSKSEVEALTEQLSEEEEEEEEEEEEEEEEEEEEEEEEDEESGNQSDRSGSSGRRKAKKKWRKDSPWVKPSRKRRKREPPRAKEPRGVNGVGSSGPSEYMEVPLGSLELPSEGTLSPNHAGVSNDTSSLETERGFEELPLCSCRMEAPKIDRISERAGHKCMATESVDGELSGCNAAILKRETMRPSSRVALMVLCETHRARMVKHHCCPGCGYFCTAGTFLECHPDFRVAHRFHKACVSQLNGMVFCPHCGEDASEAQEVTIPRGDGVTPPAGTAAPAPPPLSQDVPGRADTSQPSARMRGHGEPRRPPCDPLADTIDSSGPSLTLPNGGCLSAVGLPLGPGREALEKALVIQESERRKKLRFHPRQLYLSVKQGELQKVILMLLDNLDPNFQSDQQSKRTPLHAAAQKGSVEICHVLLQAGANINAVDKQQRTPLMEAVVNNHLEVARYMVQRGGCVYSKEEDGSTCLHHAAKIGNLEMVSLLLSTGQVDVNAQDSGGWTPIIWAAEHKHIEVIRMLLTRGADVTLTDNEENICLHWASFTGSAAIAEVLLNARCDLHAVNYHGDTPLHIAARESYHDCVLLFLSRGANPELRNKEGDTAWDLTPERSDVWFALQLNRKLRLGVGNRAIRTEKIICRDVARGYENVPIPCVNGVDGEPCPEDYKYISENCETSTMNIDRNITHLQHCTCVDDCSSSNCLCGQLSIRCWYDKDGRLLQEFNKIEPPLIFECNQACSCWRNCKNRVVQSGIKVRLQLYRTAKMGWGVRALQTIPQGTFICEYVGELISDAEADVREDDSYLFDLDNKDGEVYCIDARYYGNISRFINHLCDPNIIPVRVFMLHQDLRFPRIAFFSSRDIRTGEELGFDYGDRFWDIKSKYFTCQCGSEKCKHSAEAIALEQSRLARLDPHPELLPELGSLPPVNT
Assay: Inhibition of G9a (unknown origin) at <5 uM using histone H3 peptide (1 to 21) as substrate in presence of co-factor SAM by LC-MS analysis

inhibition: inactive
Structure (SMILES): COc1nc(Nc2cc(S(C)(=O)=O)ccc2N[C@@H](c2cccc3c2OC(F)(F)O3)c2ncccc2Cl)nc(N2CCNCC2)n1
